Here are results for 3 compounds from US20110224229A1, “Novel Crystalline Form” (AstraZeneca AB, priority 2010, published 2011).

Data set [1] is described as follows: Humidity interaction, Gravimetrical Vapour Sorption (GVS). The format is physicochemical. To be noted: for hygroscopicity, defined as the water uptake by a dried sample when the relative humidity is increased from 0% to 80%: 0% to 80% RH at 25° C.; for hygroscopicity (in words) / water uptake following exposure to 80% relative humidity (RH): GVS, 80% RH. The procedure:
The gravimetric responses of test samples to changes in humidity were investigated using a TGA 5000 (TA Instruments) Gravimetrical Vapour Sorption (GVS). The temperature was held at 25° C. throughout the experiments. The relative humidity (RH) was raised in steps (of 5 or 10%) up to 90% RH and lowered back to 0% RH in two cycles. Each level of RH was held until the equilibrium condition (sample weight change<0.0005 wt % per 10 minutes) was reached. 5-10 mg of the test sample was placed in the cup and evaluated. The hygroscopicity was calculated as the relative change in weight of the sample between 0% RH at the start of the second cycle and 80% RH during the increase of humidity in the second cycle.
The hygroscopicity of a sample is dependent on factors in addition to the inherent properties of the pure solid form itself, for example the purity and the crystallinity of the sample will have some impact on the result.

A short description of data set [2]: Slurrying in water or solvents, hydrate/solvate formation. It counts as physicochemical.
Data set [3] has as its target T1, Human Neutrophil Elastase (HNE) (Homo sapiens, UniProt P08246).
T1 construct: Human Neutrophil Elastase (HNE) purified from serum; purchased Calbiochem 324681; host or cells: natural source
T1 sequence (P08246 30-267): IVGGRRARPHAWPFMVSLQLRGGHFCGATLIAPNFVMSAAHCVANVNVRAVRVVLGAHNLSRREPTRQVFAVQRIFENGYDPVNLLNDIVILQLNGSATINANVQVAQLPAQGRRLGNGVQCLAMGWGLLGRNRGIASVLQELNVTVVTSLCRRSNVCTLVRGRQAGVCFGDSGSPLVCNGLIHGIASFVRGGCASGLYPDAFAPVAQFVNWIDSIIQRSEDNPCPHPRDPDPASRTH
As to the kind of experiment: Human Neutrophil Elastase Quenched-FRET Assay. The format is biochemical. The conditions noted are these: compound dissolved in DMSO; n=7; read-out: IC50 value for inhibition of human neutrophil elastase activity. On the procedure: The assay uses Human Neutrophil Elastase (HNE) purified from serum (Calbiochem art. 324681; Ref. Baugh, R. J. et al., 1976, Biochemistry. 15, 836-841). HNE was stored in 50 mM sodium acetate (NaOAc), 500 mM sodium chloride (NaCl), pH 5.5 with added 50% glycerol at −20° C. The protease substrate used was Elastase Substrate V Fluorogenic, MeOSuc-AAPV-AMC (Calbiochem art. 324740; Ref. Castillo, M. J. et al., 1979, Anal. Biochem. 99, 53-64). The substrate was stored in dimethyl sulfoxide (DMSO) at −20° C. The assay additions were as follows: Test compounds and controls were added to black 96-well flat-bottom plates (Greiner 655076), 1.0 μL in 100% DMSO, followed by 30 μL HNE in assay buffer with 0.01% Triton (trade mark) X-100 detergent. The assay buffer constitution was: 100 mM Tris(hydroxymethyl)aminomethane (TRIS) (pH 7.5) and 500 mM NaCl. The enzyme and the compounds were incubated at room temperature for 15 minutes. Then 30 μl substrate in assay buffer was added. The assay was incubated for 90 minutes at room temperature. The concentrations of HNE enzyme and substrate during the incubation were 0.17 nM and 100 μM, respectively. […] Fluorescence was measured on a Wallac EnVision instrument at settings: Excitation 380 nm, Emission 460 nm. IC50 values were determined using Xlfit curve fitting using model 203.

“Also recorded” adds a separate entry of the source.

For the compound `CCNC(=O)c1nc(-c2ccnn2-c2ccc(C#N)cc2)c(C)n(-c2cccc(C(F)(F)F)c2)c1=O` [Compound (I) Form A, 6-[2-(4-Cyano-phenyl)-2H-pyrazol-3-yl]-5-methyl-3-oxo-4-(3-trifluoromethyl-phenyl)-3,4-dihydro-pyrazine-2-carboxylic acid ethylamide Form A], in data set [1], the “hygroscopicity, defined as the water uptake by a dried sample when the relative humidity is increased from 0% to 80%” value is reported as 1.6 % (w/w); the “hygroscopicity (in words)” value is recorded as “slightly hygroscopic; also recorded: non-hygroscopic”; the “water uptake following exposure to 80% relative humidity (RH)” value is given as “about 1.6 % by weight”. Moreover, the “solvate/hydrate formation when slurried in water, ethanol or acetonitrile” value in data set [2] (slurried in water, ethanol or acetonitrile, XRPD) was “forms variable, non-stoichiometric solvates with acetonitrile or ethanol and hydrates with water”.
In the case of `CCNC(=O)c1nc(-c2ccnn2-c2ccc(C#N)cc2)c(C)n(-c2cccc(C(F)(F)F)c2)c1=O` [Compound (I) Form B, 6-[2-(4-Cyano-phenyl)-2H-pyrazol-3-yl]-5-methyl-3-oxo-4-(3-trifluoromethyl-phenyl)-3,4-dihydro-pyrazine-2-carboxylic acid ethylamide Form B], in data set [1], the “hygroscopicity, defined as the water uptake by a dried sample when the relative humidity is increased from 0% to 80%” value is 0.08 % (w/w); the “hygroscopicity (in words)” value is given as “substantially non-hygroscopic”; the “water uptake following exposure to 80% relative humidity (RH)” value is “about 0.08 % by weight”. Moreover, the “hydrate formation when slurried in water” value in data set [2] (slurried in water for 4 weeks) was “did not form hydrates”.
Take `CCNC(=O)c1nc(-c2ccnn2-c2ccc(C#N)cc2)c(C)n(-c2cccc(C(F)(F)F)c2)c1=O` [Compound (I), 6-[2-(4-Cyano-phenyl)-2H-pyrazol-3-yl]-5-methyl-3-oxo-4-(3-trifluoromethyl-phenyl)-3,4-dihydro-pyrazine-2-carboxylic acid ethylamide]: in data set [3], the concentration for half-maximal inhibition (IC50) (commonly the concentration needed to halve the response being measured) amounted to 0.27 nM.
